Data published in patent US20230065953A1, “NOVEL HETEROARYL-TRIAZOLE COMPOUNDS AS PESTICIDES” (Bayer Aktiengesellschaft, priority 2019, published 2023).

Legend:
Type in all cases: in vivo
[1] = system: larvae of the banded cucumber beetle (Diabrotica balteata); test: Diabrotica balteata spray test; conditions: 168 h, 100 g/ha (=32 μg/well), wheat seeds, after 7 days, read-out: efficacy (seedling growth)
Procedure: Diabrotica Balteata—Spray Test
• Solvent: 78.0 parts by weight of acetone • 1.5 parts by weight of dimethylformamide • Emulsifier: alkylarylpolyglycol ether
Further test concentrations are prepared by dilution with emulsifier containing water.
Soaked wheat seeds (Triticum aestivum) are placed in a multiple well plate filled with agar and some water and are incubated for 1 day to germinate (5 seeds per well). The germinated wheat seeds are sprayed with a test solution containing the desired concentration of the active ingredient. Afterwards each unit is infected with 10-20 larvae of the banded cucumber beetle (Diabrotica balteata).
After 7 days efficacy in % is determined.

[2] = system: green peach aphid (Myzus persicae); test: Myzus persicae spray test; conditions: foliar, 120 h, Chinese cabbage leaf disks, after 5 days
Procedure: Myzus persicae—Spray Test • Solvent: 78.0 parts by weight acetone • 1.5 parts by weight dimethylformamide • Emulsifier: alkylarylpolyglycol ether
(§1) To produce a suitable preparation of active compound, 1 part by weight of active compound is mixed with the stated amount of solvents and is diluted with water, containing an emulsifier concentration of 1000 ppm, to the desired concentration. Further test concentrations are prepared by dilution with emulsifier containing water.
Chinese cabbage (Brassica pekinensis) leaf disks infected with all instars of the green peach aphid (Myzus persicae), are sprayed with a preparation of the active ingredient of the desired concentration.
After 5 days mortality in % is determined. 100% means all aphids have been killed and 0% means none of the aphids have been killed.

[3] = system: larvae of the southern green stink bug (Nezara viridula); test: Nezara viridula spray test; conditions: in Hordeum vulgare, 96 h
Procedure: Nezara viridula—Spray Test • Solvent: 78.0 parts by weight of acetone • 1.5 parts by weight of dimethylformamide • Emulsifier: alkylarylpolyglycol ether
as §1, with “solvent,” for “solvents”, “and the concentrate” for “and”
Barley plants (Hordeum vulgare) are sprayed with a test solution containing the desired concentration of the active ingredient and are infested with larvae of the southern green stink bug (Nezara viridula).
After 4 days mortality in % is determined. 100% means all the stink bugs have been killed; 0% means none of the stink bugs have been killed.

[4] = system: fall armyworm larvae (Spodoptera frugiperda); test: Spodoptera frugiperda spray test (maize leaf sections); conditions: 168 h
Procedure: Spodoptera frugiperda—Spray Test • Solvent: 78.0 parts by weight acetone • 1.5 parts by weight dimethylformamide • Emulsifier: alkylarylpolyglycol ether
as §1
Maize (Zea mays) leaf sections are sprayed with a preparation of the active ingredient of the desired concentration. Once dry, the leaf sections are infested with fall armyworm larvae (Spodoptera frugiperda).
After 7 days mortality in % is determined. 100% means all caterpillars have been killed and 0% means none of the caterpillars have been killed.

[5] = system: Rhipicephalus microplus larvae (strain Parkhurst, resistant against synthetic pyrethroids); test: Rhipicephalus (Boophilus) microplus in-vitro contact test, larval cattle tick; conditions: 5 μg/cm^2 (=500 g/ha), after 48 hours, read-out: efficacy (larvae dead or moribund)
Procedure: Rhipicephalus (Boophilus) Microplus—In-Vitro Contact Tests Larval Cattle Tick (Strain Parkhurst, Resistant Against Synthetic Pyrethroids)
9 mg compound is solved in 1 mL acetone and diluted with acetone to the desired concentration. 250 μL of the test solution is filled in 25 mL glass test tubes and homogeneously distributed on the inner walls by rotation and tilting on a shaking device (2 h at 30 rpm). With a compound concentration of 900 ppm, an inner surface of 44.7 cm^2 and a homogeneous distribution, a dose of 5 μg/cm^2 is achieved.
After the solvent has evaporated, each test tube is filled with 20-50 cattle tick larvae (Rhipicephalus microplus), closed with a perforated lid and incubated in a horizontal position at 85% relative humidity and 27° C. in an incubator. After 48 hours efficacy is determined. The larvae are patted on the ground of the tubes and negative geotactic behavior is recorded.
An efficacy of 100% means all larvae are dead or moribund; 0% means no larvae are dead or moribund.

Row | SMILES | pest or weed control at 32 µg/disc, 100 g/ha [1] | mortality at 100 g/ha [2] | mortality at 500 g/ha [3] | mortality at 100 g/ha [4] | mortality at 100 g/ha [3] | pest or weed control at 5 µg/cm2 [5]
1 | C[C@H](NC(=O)c1cc(Cl)cc(S(=O)(=O)C2CC2)c1)c1ncnn1-c1ncc(C#N)s1 [I-46] | 100% | 90% | 100% | 100% | – | –
2 | C[C@H](NC(=O)c1cc(OC(F)F)cc(S(=O)(=O)C2CC2)c1)c1ncnn1-c1ncc(C#N)s1 [I-50] | – | 90% | 100% | 100% | 90% | –
3 | C[C@H](NC(=O)c1cc(C(F)F)cc(S(=O)(=O)C2CC2)c1)c1ncnn1-c1ncc(C#N)s1 [I-51] | – | 90% | 100% | 100% | 100% | –
4 | C[C@H](NC(=O)c1cc(OC(F)F)cc(S(C)(=O)=O)c1)c1ncnn1-c1ncc(C#N)s1 [I-54, N-{(1S)-1-[1-(5-cyano-1,3-thiazol-2-yl)-1H-1,2,4-triazol-5-yl]ethyl}-3-(difluoromethoxy)-5-(methylsulfonyl)benzamide] | – | – | 100% | 100% | – | –
5 | Cc1nc([C@H](C)NC(=O)c2cc(Cl)nc(C(F)(F)F)c2)n(-c2ncc(C(=O)N(C)C)s2)n1 [I-77] | 100% | – | – | 100% | – | 100%
6 | Cc1nc([C@H](C)NC(=O)c2cc(Cl)nc(C(F)(F)F)c2)n(-c2ncc(C(=O)N(C)CC#N)s2)n1 [I-80] | 100% | – | – | 100% | – | 100%
7 | C[C@H](NC(=O)c1cc(Cl)cc(C(F)(F)Br)c1)c1ncnn1-c1ncc(C#N)s1 [I-86] | 100% | 100% | – | 100% | – | –
8 | C[C@H](NC(=O)c1cc(C2CC2)cc(C(C)(F)F)c1)c1ncnn1-c1ncc(C#N)s1 [I-95] | 100% | 100% | – | 100% | – | –
9 | C[C@H](NC(=O)c1cc(OC(F)F)cc(OC(F)(F)F)c1)c1ncnn1-c1ncc(C#N)s1 [I-100] | 100% | 90% | 100% | 100% | 100% | –
10 | C[C@H](NC(=O)c1cc(OC(F)(F)F)cc(S(=O)(=O)C2CC2)c1)c1nc(C2CC2)nn1-c1ncc(C#N)s1 [I-104] | 100% | – | 90% | 100% | – | –
11 | CNC(=O)c1cnc(-n2ncnc2[C@H](C)NC(=O)c2cc(Br)cc(OC(F)(F)F)c2)s1 [I-111] | 100% | – | 100% | 100% | – | –
12 | CNC(=O)c1cnc(-n2ncnc2[C@H](C)NC(=O)c2cc(OC(F)F)cc(OC(F)F)c2)s1 [I-112] | 100% | 100% | 100% | 100% | 100% | –
13 | CNC(=O)c1cnc(-n2ncnc2[C@H](C)NC(=O)c2cc(Cl)cc(S(=O)(=O)C(F)F)c2)s1 [I-114] | 100% | 90% | 100% | 100% | 100% | –
14 | C[C@H](NC(=O)c1cc(Br)cc(OC(F)F)c1)c1ncnn1-c1ncc(C(=O)N(C)C)s1 [I-115] | 100% | – | 90% | 100% | – | –
15 | C[C@H](NC(=O)c1cc(Cl)cc(S(=O)(=O)C(F)F)c1)c1ncnn1-c1ncc(C(=O)N(C)C)s1 [I-121] | 100% | – | 100% | – | – | –
16 | C[C@H](NC(=O)c1cc(C(F)F)cc(S(=O)(=O)C2CC2)c1)c1nc(C2CC2)nn1-c1ncc(C#N)s1 [I-123] | 100% | – | 100% | 100% | – | –
17 | C[C@H](NC(=O)c1cc(Cl)cc(S(=O)(=O)C(F)F)c1)c1ncnn1-c1ncc(C#N)s1 [I-134] | 100% | – | 100% | 100% | – | –

Row | SMILES | pest or weed control at 32 µg/disc, 100 g/ha [1] | mortality at 100 g/ha [2] | mortality at 500 g/ha [3] | mortality at 100 g/ha [4] | mortality at 100 g/ha [3] | pest or weed control at 5 µg/cm2 [5]
18 | C[C@H](NC(=O)c1cc(OC(F)F)cc(S(=O)(=O)C(F)F)c1)c1ncnn1-c1ncc(C#N)s1 [I-136] | 100% | – | 100% | 100% | 100% | –
19 | CNC(=O)c1cnc(-n2ncnc2[C@H](C)NC(=O)c2cc(C(F)F)cc(C(F)F)c2)s1 [I-137] | 100% | 90% | 100% | 100% | – | –
20 | C[C@H](NC(=O)c1cc(OC(F)F)cc(OC(F)F)c1)c1ncnn1-c1ncc(C(=O)N(C)C2CC2)s1 [I-148] | 100% | 90% | – | 100% | – | –
21 | C[C@H](NC(=O)c1cc(OC(F)(F)F)cc(C2CC2)c1)c1ncnn1-c1ncc(C(=O)N(C)C2CC2)s1 [I-152] | 100% | 90% | – | 100% | – | –
22 | C[C@H](NC(=O)c1cc(Br)cc(OC(F)F)c1)c1ncnn1-c1ncc(C(=O)N(C)C2CC2)s1 [I-154] | 100% | 90% | – | 100% | – | –
23 | C[C@H](NC(=O)c1cc(Cl)cc(OC(F)(F)F)c1)c1ncnn1-c1ncc(C(=O)N(C)C2CC2)s1 [I-155] | 100% | 90% | – | 100% | – | –
24 | Cc1nc([C@H](C)NC(=O)c2cc(Cl)cc(S(=O)(=O)C(F)F)c2)n(-c2ncc(C#N)s2)n1 [I-158] | 100% | – | 90% | 100% | – | –
25 | Cc1nc([C@H](C)NC(=O)c2cc(OC(F)(F)F)cc(S(=O)(=O)C(F)F)c2)n(-c2ncc(C#N)s2)n1 [I-161] | 100% | 100% | – | 100% | – | –
26 | C[C@H](NC(=O)c1cc(C(F)(F)F)cc(Cl)n1)c1ncnn1-c1ncc(C#N)s1 [I-166] | 100% | – | 100% | 100% | – | –
27 | C[C@H](NC(=O)c1cc(Cl)cc(Cl)n1)c1ncnn1-c1ncc(C#N)s1 [I-167] | 100% | – | 100% | – | – | –
28 | C[C@H](NC(=O)c1cc(Cl)nc(C(F)(F)F)c1)c1ncnn1-c1ncc(C#N)s1 [I-168] | 100% | – | 100% | 100% | – | –
29 | C[C@H](NC(=O)c1cc(OC(F)(F)F)cc(C2(C#N)CC2)c1)c1nc(C2CC2)nn1-c1ncc(C#N)s1 [I-169] | 100% | – | 100% | 100% | – | –
30 | CNC(=O)c1cnc(-n2ncnc2[C@H](C)NC(=O)c2cc(OC(F)(F)F)cc(S(=O)(=O)C(F)F)c2)s1 [I-170] | 100% | – | 100% | 100% | – | –
31 | C[C@H](NC(=O)c1cc(OC(F)(F)F)cc(S(=O)(=O)C(F)F)c1)c1ncnn1-c1ncc(C(=O)N(C)C)s1 [I-171] | 100% | 100% | 100% | 100% | – | –
32 | CNC(=O)c1cnc(-n2nc(C3CC3)nc2[C@H](C)NC(=O)c2cc(OC(F)(F)F)cc(C3CC3)c2)s1 [I-173] | 100% | – | 100% | – | – | –
33 | Cc1nc([C@H](C)NC(=O)c2cncc(OC(F)(F)F)c2)n(-c2ncc(C#N)s2)n1 [I-175] | – | – | 100% | – | – | –
